According to PubChem BioAssay (NCI):
Values joined by “and” are separate entries in the source; they are usually repeats but may differ in a detail not shown here. Equal values may be shown once.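 In this assay, cells in 96-well plates receive the compound at five concentrations for 48 hours. Endpoints are linearly interpolated between the surrounding concentrations. The concentration for 50% growth inhibition is given as GI50. At the TGI there is no net growth.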

Legend:
Assay in all cases: DTP human tumour cell line panel, 48 h
NCI-H460 lung = test system: NCI-H460 lung
DU-145 prostate = test system: DU-145 prostate
SK-OV-3 ovarian = test system: SK-OV-3 ovarian
HS 578T breast = test system: HS 578T breast
NCI-H23 lung = test system: NCI-H23 lung
RPMI-8226 leukemia = test system: RPMI-8226 leukemia
LOX IMVI melanoma = test system: LOX IMVI melanoma
HT29 colon = test system: HT29 colon
EKVX NSCLC = test system: EKVX NSCLC
SK-MEL-5 melanoma = test system: SK-MEL-5 melanoma

| Compound | TGI (NCI-H460 lung) | TGI (DU-145 prostate) [µM] | TGI (SK-OV-3 ovarian) | TGI (HS 578T breast) [µM] | TGI (NCI-H23 lung) | TGI (RPMI-8226 leukemia) [µM] | TGI (LOX IMVI melanoma) | TGI (HT29 colon) | TGI (EKVX NSCLC) | TGI (SK-MEL-5 melanoma) [µM] | GI50 (NCI-H460 lung) | GI50 (DU-145 prostate) [µM] | GI50 (SK-OV-3 ovarian) | GI50 (HS 578T breast) [µM] | GI50 (NCI-H23 lung) | GI50 (RPMI-8226 leukemia) [µM] | GI50 (LOX IMVI melanoma) | GI50 (HT29 colon) [µM] | GI50 (EKVX NSCLC) | GI50 (SK-MEL-5 melanoma) [µM] |
| --- | --- | --- | --- | --- | --- | --- | --- | --- | --- | --- | --- | --- | --- | --- | --- | --- | --- | --- | --- | --- |
| O=C1/C(=C/c2ccc(Cl)c(Cl)c2)CNC/C1=C\c1ccc(Cl)c(Cl)c1 | 29.1 µM | > 100 | 69.6 µM | 19.3 | 26.9 µM | > 49.8 | 13.5 µM | 45.2 µM | 13.6 µM | > 70.4 |  |  |  |  |  |  |  |  |  |  |
| CCCC(C)c1c(Cl)nc(Cl)nc1Cl (stereo not given) | 45.6 µM | 28.3 | 43.8 µM | > 100 | 18 µM | > 100 | > 100 µM | 26.5 µM | 36.9 µM | 13.9 |  |  |  |  |  |  |  |  |  |  |
| Nc1nccc2c1ccn2-c1cccc(NC(=O)c2ccc(N3CCOCC3)c(C(F)(F)F)c2)c1 | 5.42 µM | 4.15 | 6.52 µM | 2.43 | 14.7 µM | 4.98 | > 16.2 µM | 1.45 µM | > 50 µM | 1.75 | 0.297 µM | 1.22 | 0.741 µM | 0.34 | 1.16 µM | 0.992 | 0.997 µM | 0.32 | 1.99 µM | 0.386 |
| COc1ccc(/C=C\c2cc(OC)c(OC)c(OC)c2)cc1OCC(=O)Nc1nc2ccccc2s1 | > 100 µM | > 100 | > 100 µM | > 100 | > 100 µM | > 100 | > 100 µM | > 48.9 µM | > 100 µM | 0.263 | 0.0476 µM | 0.14 | 0.374 µM | 26 | 0.0966 µM | 0.683 | 0.0808 µM | 2.72 | 3.65 µM | 0.0405 |
| O=C(Cn1c(C(=O)c2ccc(Cl)cc2)nc(-c2ccccc2)c1-c1ccccc1)c1ccc(Cl)cc1 | > 100 µM | > 100 | > 100 µM | > 100 | > 100 µM | > 100 | > 100 µM | > 100 µM | > 100 µM | > 100 | > 100 µM | > 100 | > 100 µM | > 100 | > 100 µM | > 100 | > 100 µM | > 100 | > 100 µM | > 100 |
| CCCCCCCCNC(C)C(O)c1ccc(SC(C)C)cc1 (stereo not given) | 3.56 µM | 3.27 | 2.98 µM | 4.61 | 3.13 µM | 4.91 | 2.92 µM | 1.91 µM | 2.98 µM | 2.99 | 1.85 µM | 1.86 | 1.63 µM | 1.98 | 1.58 µM | 2.06 | 1.54 µM | 0.654 | 1.44 µM | 1.62 |
| O=c1c2c(=NCCN3CCCC3)cc3c(=O)n(CCCN4CCOCC4)c(=O)c4ccc(c(O)n1CCCN1CCOCC1)c2c4-3 | 1.08 µM | 1.67 | 2.15 µM | 5.24 | 0.627 µM | 1.09 | 0.443 µM | 1.04 µM | 0.427 µM | 0.918 | 0.0791 µM | 0.088 | 0.381 µM | 1.18 | 0.118 µM | 0.146 | 0.192 µM | < 0.0181 | 0.153 µM | 0.442 |
| Cc1ccc(-c2cc(-c3ccc(C)cc3)nc(N3CCN(CCNc4ccnc5cc(Cl)ccc45)CC3)n2)cc1 | 9.2 µM | 8.5 | 14.2 µM | 4.56 | 17.5 µM | > 50 | 6.07 µM | 7.26 µM | 20 µM | 18.3 | 2.21 µM | 2.06 | 5.49 µM | 1.41 | 3.63 µM | 3.48 | 1.82 µM | 1.51 | 5.65 µM | 6.65 |
| Fc1cccc(Cl)c1Cn1c(-c2c(F)cccc2Cl)nc2ccccc21 | 34.1 µM | 56.1 | 44.6 µM | 65.3 | > 100 µM | 60 | 42.2 µM | > 100 µM | 32.6 µM | 29.8 | 13.1 µM | 24.6 | 18.4 µM | 21.6 | 31.2 µM | 13.3 | 20.5 µM | 30 | 13.3 µM | 11.6 |
| CC[C@H]1CN(C)[C@H]2Cc3c([nH]c4ccccc34)C(=O)C[C@H]1C2C(=O)OC (stereo not given in full) | > 100 µM | > 100 | > 100 µM | > 100 | > 100 µM | > 100 | > 100 µM | > 100 µM | > 100 µM | > 100 |  |  |  |  |  |  |  |  |  |  |
| O=C1/C(=C/c2ccc(Cl)cc2)CCC1CN1CCOCC1 (stereo not given) | 39.2 µM | 16.1 | 31.9 µM | > 100 | 20.9 µM | > 28.3 | 5.24 µM | 23 µM | 30.7 µM | 26.1 |  |  |  |  |  |  |  |  |  |  |
| O=C1C(Br)=C(Br)C(=O)c2ccccc21 | > 100 µM and 33.9 µM | 33 | 31.1 µM and 13.2 µM | > 60.7 | 33.5 µM and 17.6 µM | 10.4 | 31.4 µM and 12.3 µM | > 100 µM and 21.8 µM | > 100 µM and 39.9 µM | 23.3 | 32.7 µM and 10.6 µM |  | 16.1 µM and 5.4 µM |  | 17.2 µM and 6.6 µM |  | 16.5 µM and 4.69 µM |  | 100 µM and 20 µM |  |
| CC[C@H](C)[C@H](NC(=O)NC(C)(C)C)C(=O)N(C)[C@H](C[C@@H](OC(C)=O)c1nc(C(=O)N[C@@H](Cc2ccccc2)C[C@H](C)C(=O)OC)cs1)C(C)C | > 13.7 µM | > 6.3 | > 25 µM | > 15.3 | > 25 µM | 4.2 | > 25 µM | > 8.91 µM | > 25 µM | 0.604 | 0.699 µM | 0.648 | 0.734 µM | 0.792 | 0.825 µM | 0.263 | 0.768 µM | 0.324 | 1.24 µM | 0.139 |
| C=C(C)[C@@H]1CC[C@]2(C(=O)O)CC[C@]3(C)[C@H](CC[C@@H]4[C@@]5(C)C/C(=C/c6cccc(I)c6)C(=O)C(C)(C)[C@@H]5CC[C@]43C)[C@@H]12 | 4.27 µM | 7.84 | 11.9 µM | 8.75 | 8.44 µM | 7.06 | 3.58 µM | 9.76 µM | 12.7 µM | 3.44 | 1.9 µM | 2.63 | 3.27 µM | 2.51 | 2.49 µM | 2.07 | 1.72 µM | 2.9 | 2.65 µM | 1.8 |
